{"source": "ChEMBL document CHEMBL1221210", "about": "“A Cdc7 kinase inhibitor restricts initiation of DNA replication and has antitumor activity” (Nat Chem Biol, 2008)", "key": {"HeLa [1]": {"system": "HeLa", "experiment": "Inhibition of DNA replication in human HeLa cells assessed as interorigin distance between homogenous DNA fibers at 5 uM after 6 hrs by immunofluorescence assay", "assay_type": "functional"}, "HeLa [2]": {"system": "HeLa", "experiment": "Inhibition of DNA replication in human HeLa cells assessed as increase in replication fork speed per min at 2 uM after 4 hrs by immunofluorescence assay", "assay_type": "functional"}, "HeLa [3]": {"system": "HeLa", "experiment": "Inhibition of DNA replication in human HeLa cells assessed as increase in replication fork speed per min at 5 uM after 4 hrs by immunofluorescence assay", "assay_type": "functional"}, "HeLa [4]": {"system": "HeLa", "experiment": "Inhibition of DNA replication in human HeLa cells assessed as increase in replication fork speed per min at 20 uM after 4 hrs by immunofluorescence assay", "assay_type": "functional"}, "HeLa [5]": {"system": "HeLa", "experiment": "Inhibition of DNA synthesis in human HeLa cells assessed as Brd-U uptake at 5 uM by FACS analysis", "assay_type": "functional", "parameters": "scale not given: the % may be the effect or the level left"}, "HeLa [6]": {"system": "HeLa", "experiment": "Inhibition of DNA synthesis in human HeLa cells assessed as Brd-U uptake at 5 uM after 9 hrs by FACS analysis", "assay_type": "functional", "parameters": "scale not given: the % may be the effect or the level left"}, "NHDF [7]": {"system": "NHDF", "experiment": "Induction of cell cycle arrest in NHDF assessed as accumulation at subG1 phase at 5 uM after 24hrs by propidium-iodine staining based FACS analysis", "conditions": "human; call rule not given here"}, "NHDF [8]": {"system": "NHDF", "experiment": "Induction of cell cycle arrest in thymidine deficient NHDF assessed as DNA synthesis in S-phase at 5 uM after 2hrs FACS analysis", "assay_type": "cell-based", "conditions": "human"}, "NHDF [9]": {"system": "NHDF", "experiment": "Induction of cell cycle arrest in thymidine deficient NHDF assessed as DNA synthesis in S-phase at 5 uM after 16hrs FACS analysis in presence of serum", "assay_type": "cell-based", "conditions": "human"}, "NHDF [10]": {"system": "NHDF", "experiment": "Prevention of nocodazole induced mitotic arrest in NHDF after 1 hr by FACS analysis", "assay_type": "cell-based", "conditions": "human"}, "Mus musculus": {"system": "Mus musculus", "experiment": "AUC in SCID mouse carrying human HL60 cells at 20 mg/kg, iv after 10 hrs", "assay_type": "ADME, organism-based, HL-60", "parameters": "time < 10 hr, dose 20 mg/kg, route intravenous", "conditions": "in vivo"}, "[11]": {"experiment": "Clearance in SCID mouse carrying human HL60 cells at 20 mg/kg or 30 mg/kg, iv after 10 hrs", "assay_type": "ADME, organism-based, HL-60", "conditions": "in vivo"}, "[12]": {"experiment": "Inhibition of Ck2"}, "[13]": {"experiment": "Inhibition of PDGFR"}, "SF-268": {"system": "SF-268", "experiment": "Antiproliferative activity against p53 deficient human SF268 cells after 72 hrs", "assay_type": "functional, cell-based", "conditions": "SF-268, 72 h"}, "SW480 [14]": {"system": "SW480", "experiment": "Antiproliferative activity against p53 deficient human SW480 cells after 72 hrs by proliferative assay", "assay_type": "functional, cell-based", "conditions": "SW480, 72 h"}, "HCT-116": {"system": "HCT-116", "experiment": "Antiproliferative activity against human HCT116 cells expressing p53 gene after 72 hrs by proliferative assay", "assay_type": "functional, cell-based", "conditions": "HCT-116, 72 h"}, "SF-539": {"system": "SF-539", "experiment": "Antiproliferative activity against human SF539 cells expressing p53 gene after 72 hrs by proliferative assay", "assay_type": "functional, cell-based", "conditions": "SF-539, 72 h"}, "U2OS [15]": {"system": "U2OS", "experiment": "Antiproliferative activity against human U2OS cells expressing p53 gene after 72 hrs by proliferative assay", "assay_type": "functional, cell-based"}, "PC-3 [16]": {"system": "PC-3", "experiment": "Antiproliferative activity against human PC3 cells expressing p53 gene after 72 hrs by proliferative assay", "assay_type": "functional, cell-based", "conditions": "PC-3, 72 h"}, "K562": {"system": "K562", "experiment": "Induction of cell cycle arrest in p53 deficient human K562 cells assessed as accumulation at subG1 phase at 5 uM after 24hrs by FACS analysis", "assay_type": "functional"}, "HeLa [17]": {"system": "HeLa", "experiment": "Induction of cell cycle arrest in p53 deficient human HeLa cells assessed as assessed as accumulation at subG1 phase at 5 uM after 24hrs by FACS analysis", "assay_type": "functional"}, "SW480 [18]": {"system": "SW480", "experiment": "Induction of cell cycle arrest in p53 deficient human SW480 cells assessed as accumulation at subG1 phase at 5 uM after 24hrs by FACS analysis", "assay_type": "functional"}, "COLO 205 [19]": {"system": "COLO 205", "experiment": "Induction of cell cycle arrest in p53 deficient human COLO205 cells assessed as accumulation at subG1 phase at 5 uM after 24hrs by FACS analysis", "assay_type": "functional"}, "[20]": {"experiment": "Induction of cell cycle arrest in p53 deficient human A2780/E6 cells as accumulation at subG1 phase at 5 uM after 24hrs by FACS analysis", "assay_type": "functional"}, "MCF7 [21]": {"system": "MCF7", "experiment": "Induction of cell cycle arrest in human MCF7 cells expressing p53 gene assessed as accumulation at subG1 phase at 5 uM after 24hrs by FACS analysis", "assay_type": "functional"}, "HCT-15": {"system": "HCT-15", "experiment": "Induction of cell cycle arrest in human HCT15 cells expressing p53 gene assessed as accumulation at subG1 phase at 5 uM after 24hrs by FACS analysis", "assay_type": "functional"}, "U2OS [22]": {"system": "U2OS", "experiment": "Induction of cell cycle arrest in human U2OS cells expressing p53 gene assessed as accumulation at subG1 phase at 5 uM after 24hrs by FACS analysis", "assay_type": "functional"}, "A2780 [23]": {"system": "A2780", "experiment": "Induction of cell cycle arrest in human A2780 cells expressing p53 gene assessed as accumulation at subG1 phase at 5 uM after 24hrs by FACS analysis", "assay_type": "functional"}, "PC-3 [24]": {"system": "PC-3", "experiment": "Induction of cell cycle arrest in human PC3 cells expressing p53 gene assessed as accumulation at subG1 phase at 5 uM after 24hrs by FACS analysis", "assay_type": "functional"}, "NHDF [25]": {"system": "NHDF", "experiment": "Induction of cell cycle arrest in NHDF expressing p53 gene assessed as accumulation at subG1 phase at 5 uM after 24hrs by FACS analysis", "assay_type": "cell-based", "conditions": "human"}, "COLO 205 [26]": {"system": "COLO 205", "experiment": "Induction of cell cycle arrest in p53 deficient human COLO205 cells assessed as accumulation at subG1 phase at 10 uM after 24hrs by FACS analysis", "assay_type": "functional"}, "Jurkat [27]": {"system": "Jurkat", "experiment": "Induction of cell cycle arrest in p53 deficient human Jurkat cells assessed as accumulation at subG1 phase at 10 uM after 24hrs by FACS analysis", "assay_type": "functional"}, "[28]": {"experiment": "Induction of cell cycle arrest in p53 deficient human A2780/E6 cells assessed as accumulation at subG1 phase at 10 uM after 24hrs by FACS analysis", "assay_type": "functional"}, "A2780 [29]": {"system": "A2780", "experiment": "Induction of cell cycle arrest in human A2780 cells expressing p53 gene assessed as accumulation at subG1 phase at 10 uM after 24 hrs by FACS analysis", "assay_type": "functional"}, "PC-3 [30]": {"system": "PC-3", "experiment": "Induction of cell cycle arrest in human PC3 cells expressing p53 gene assessed as accumulation at subG1 phase at 10 uM after 24 hrs by FACS analysis", "assay_type": "functional"}, "Jurkat [31]": {"system": "Jurkat", "experiment": "Induction of cell cycle arrest in p53 deficient human Jurkat cells assessed as residual DNA synthesis at 5 uM after 24 hrs by FACS analysis", "assay_type": "functional"}, "A2780 [32]": {"system": "A2780", "experiment": "Induction of cell cycle arrest in human A2780 cells expressing p53 gene assessed as residual DNA synthesis at 5 uM after 24 hrs by FACS analysis", "assay_type": "functional"}, "PC-3 [33]": {"system": "PC-3", "experiment": "Induction of cell cycle arrest in human PC3 cells expressing p53 gene assessed as residual DNA synthesis at 5 uM after 24 hrs by FACS analysis", "assay_type": "functional"}, "NHDF [34]": {"system": "NHDF", "experiment": "Induction of cell cycle arrest in NHDF expressing p53 gene assessed as residual DNA synthesis at 5 uM after 24 hrs by FACS analysis", "assay_type": "cell-based", "conditions": "human"}, "[35]": {"experiment": "Induction of cell cycle arrest in p53 deficient human HCT116-E6 cells assessed as residual DNA synthesis at 10 uM after 24 hrs by FACS analysis", "assay_type": "functional"}, "MCF7 [36]": {"system": "MCF7", "experiment": "Induction of cell cycle arrest in human MCF7 cells expressing p53 gene assessed as residual DNA synthesis at 10 uM after 24 hrs by FACS analysis", "assay_type": "functional"}}, "data": [{"smiles": "O=C1NCCc2[nH]c(-c3ccncc3)cc21", "values": [{"measurement": "Activity", "setting": "HeLa [1]", "value": 293, "unit": "kilobase"}, {"measurement": "Activity", "setting": "HeLa [2]", "value": 1.81, "unit": "kilobase"}, {"measurement": "Activity", "setting": "HeLa [3]", "value": 2.02, "unit": "kilobase"}, {"measurement": "Activity", "setting": "HeLa [4]", "value": 2.32, "unit": "kilobase"}, {"measurement": "Activity", "setting": "HeLa [5]", "value": 37, "unit": "%"}, {"measurement": "Activity", "setting": "HeLa [6]", "value": 9, "unit": "%"}, {"measurement": "Activity", "setting": "NHDF [7]", "value": 1.6, "unit": "%"}, {"measurement": "Activity", "setting": "NHDF [8]", "value": "Not Active"}, {"measurement": "Activity", "setting": "NHDF [9]", "value": "Active"}, {"measurement": "Activity", "setting": "NHDF [10]", "value": "Not Active"}, {"measurement": "AUC", "setting": "Mus musculus", "value": 47, "unit": "µM·h"}, {"measurement": "clearance", "setting": "[11]", "value": 1.8, "unit": "L/h/kg"}, {"measurement": "IC50", "setting": "[12]", "value": "> 10", "unit": "µM"}, {"measurement": "IC50", "setting": "[13]", "value": "> 10", "unit": "µM"}, {"measurement": "IC50", "setting": "SF-268", "value": 0.86, "unit": "µM"}, {"measurement": "IC50", "setting": "SW480 [14]", "value": 2.67, "unit": "µM"}, {"measurement": "IC50", "setting": "HCT-116", "value": 0.97, "unit": "µM"}, {"measurement": "IC50", "setting": "SF-539", "value": 2.34, "unit": "µM"}, {"measurement": "IC50", "setting": "U2OS [15]", "value": 1.49, "unit": "µM"}, {"measurement": "IC50", "setting": "PC-3 [16]", "value": 4.59, "unit": "µM"}, {"measurement": "Activity", "setting": "K562", "value": "<3", "unit": "%"}, {"measurement": "Activity", "setting": "HeLa [17]", "value": 10, "unit": "%"}, {"measurement": "Activity", "setting": "SW480 [18]", "value": ">20", "unit": "%"}, {"measurement": "Activity", "setting": "COLO 205 [19]", "value": 10, "unit": "%"}, {"measurement": "Activity", "setting": "[20]", "value": ">20", "unit": "%"}, {"measurement": "Activity", "setting": "MCF7 [21]", "value": 3, "unit": "%"}, {"measurement": "Activity", "setting": "HCT-15", "value": 3, "unit": "%"}, {"measurement": "Activity", "setting": "U2OS [22]", "value": 3, "unit": "%"}, {"measurement": "Activity", "setting": "A2780 [23]", "value": ">20", "unit": "%"}, {"measurement": "Activity", "setting": "PC-3 [24]", "value": 3, "unit": "%"}, {"measurement": "Activity", "setting": "NHDF [25]", "value": "< 3", "unit": "%"}, {"measurement": "Activity", "setting": "COLO 205 [26]", "value": ">20", "unit": "%"}, {"measurement": "Activity", "setting": "Jurkat [27]", "value": ">20", "unit": "%"}, {"measurement": "Activity", "setting": "[28]", "value": ">20", "unit": "%"}, {"measurement": "Activity", "setting": "A2780 [29]", "value": ">20", "unit": "%"}, {"measurement": "Activity", "setting": "PC-3 [30]", "value": 3, "unit": "%"}, {"measurement": "Activity", "setting": "Jurkat [31]", "value": "<3", "unit": "%"}, {"measurement": "Activity", "setting": "A2780 [32]", "value": "<3", "unit": "%"}, {"measurement": "Activity", "setting": "PC-3 [33]", "value": 3, "unit": "%"}, {"measurement": "Activity", "setting": "NHDF [34]", "value": "< 3", "unit": "%"}, {"measurement": "Activity", "setting": "[35]", "value": "<3", "unit": "%"}, {"measurement": "Activity", "setting": "MCF7 [36]", "value": "<3", "unit": "%"}]}]}
